From patent US8853235B2, “Polymorphs and salts of a kinase inhibitor” (Senhwa Biosciences, Inc., priority 2009, dated 2014)
“And” between values parts separate entries of the source, which are not always exact repeats. Identical values can stand only once.

Tests used:
Format in all cases: physicochemical
[1] = Micronization of Arginine and TRIS salts, physical form check; conditions: micronized vs pre-micronized
Excerpt: Both Arginine and TRIS salt forms of compound I prepared as described above were micronized at Pharmaterials in preparation for PK studies. Particle size reduction was done using a Sturtevant Qualification Micronizer® (Sturtevant Inc. Hanover Mass., USA) with dry nitrogen gas as feed and grind gas. To avoid clogging of the venturi and feed nozzle, the polymorph was initially ground using a pestle and motor to break down large particles. Grinding was done at room temperature using the following settings: • Feed air pressure: 80 psi • Grind air pressure: 100 psi
The micronized polymorph was collected from the exhaust bag and put in a glass vial pending further analysis. The material was then analyzed for particle size distribution based on a method established and applied to each batch. […] The samples were also analyzed by HPLC to determine chemical purity.

[2] = Short term accelerated stability study of Arginine and TRIS salts; conditions: 40° C./75% RH; for change by XRPD and DSC: 4 week period; for HPLC impurity after storage: after 4 weeks
Protocol: Arginine and TRIS salts of compound I prepared as described above were stored at 40° C./75% RH. Each sample was assessed at 0,1 week, 2 weeks and 4 weeks by XRPD, DSC and HPLC assess the stability of each salt.

[3] = Slurry of Arginine and TRIS salts to determine stability (competitive slurry); conditions: for relative stability of the two forms: competitive slurry, MeOH/H2O (90:10) and EtOH/H2O (90:10); for form after slurry by XRPD: MeOH/H2O (90:10), temperature cycling 40° C. and RT, 4 hour periods, 5 days
Excerpt: Both Arginine and TRIS salt forms of compound I prepared as described above were slurried in 2˜4 different solvents including aqueous mixes to further determine the stability of the new salt forms. The solids were then dried and analyzed by XRPD and Raman to check for changes in physical and/or chemical form.

[4] = Intrinsic solubility / dissolution rate of salts and polymorphs (FIGS. 82-83); conditions: qualitative; for ease of dissolution: FIGS. 82-83
[5] = Determination of particle size distribution (Malvern Mastersizer); conditions: for d50, 3 times / d90, 3 times: single measurements
Protocol: Particle size analysis of the pre-milled and post-milled TRIS and arginine salts was carried out using the Malvern Mastersizer, Model Micro Plus. Backgrounds were first measured using the appropriate vehicle solution as diluent (Dimethyl Siloxane). The samples were added drop-wise until a suitable obscuration value was achieved, and particle size distribution measured. A minimum of three analyses were made for each sample.

[6] = Storage, drying and light stability of sodium salt forms, by XRPD; conditions: for physical change in light study by XRPD: 5 day light studies; for time in which material reverts to Form II: 5 day stability study, 40° C./75% RH; for physical change on storage by XRPD: about 80° C. over about 5 days
[7] = Solubility in organic solvents, sodium salt vs free acid (FIG. 81); conditions: compared with the acid
[8] = Gravimetric Vapor Sorption (GVS) of sodium salt polymorphs; conditions: for XRPD analysis of the post-GVS experiment sample: after GVS; for GVS desorption: sample retains water until: mass drops significantly there; for hydroscopicity by GVS: qualitative
[9] = Water solubility of compound (I) acid and its salts; conditions: qualitative, acid form vs salts

O=C(O)c1ccc2c(c1)nc(Nc1cccc(Cl)c1)c1ccncc12 [Form XXI, 5-(3-chlorophenylamino)benzo[c][2,6]naphthyridine-8-carboxylic acid]
DSC change after micronization [1]: no significant change | XRPD change after micronization [1]: no significant change in crystalline structure | change by XRPD and DSC [2]: no significant change | HPLC impurity after storage [2]: no additional impurity | relative stability of the two forms [3]: more stable | ease of dissolution [4]: particularly easily dissolved | d50, Average ([5]; micronized): 4.1 μm | d90, Average ([5]; micronized): 8.0 μm | d50, 3 times ([5]; micronized): 3.98 μm and 4.04 μm and 4.14 μm | d90, 3 times ([5]; micronized): 7.90 μm and 7.94 μm and 8.13 μm | d50, Average ([5]; pre-micronized): 21.6 μm | d90, Average ([5]; pre-micronized): 71.0 μm | d50, 3 times ([5]; pre-micronized): 19.97 μm and 21.13 μm and 23.60 μm | d90, 3 times ([5]; pre-micronized): 62.36 μm and 70.79 μm and 79.85 μm

O=C(O)c1ccc2c(c1)nc(Nc1cccc(Cl)c1)c1ccncc12 [Form I, 5-(3-chlorophenylamino)benzo[c][2,6]naphthyridine-8-carboxylic acid]
solubility relative to other polymorphs [4]: significantly more soluble than other polymorphs | physical form on storage ([6]; dry conditions less than 30° C.): stay amorphous | solubility in organic solvents [7]: more soluble in organic solvents than the acid

O=C(O)c1ccc2c(c1)nc(Nc1cccc(Cl)c1)c1ccncc12 [Form IV, 5-(3-chlorophenylamino)benzo[c][2,6]naphthyridine-8-carboxylic acid]
physical change in light study by XRPD [6]: no physical change | time in which material reverts to Form II [6]: ≤ 24 h | physical change on storage by XRPD [6]: no physical change | form after drying ([6]; drying at 50° C.): converts to another crystalline polymorph | GVS uptake of water on sorption ([8]; about 20-60% RH): about 1% | GVS further rapid uptake ([8]; about 60-70% RH): approximately 8% | XRPD analysis of the post-GVS experiment sample [8]: amorphous content | GVS desorption: sample retains water until [8]: about 5%

O=C(O)c1ccc2c(c1)nc(Nc1cccc(Cl)c1)c1ccncc12 [Form XXII-B, 5-(3-chlorophenylamino)benzo[c][2,6]naphthyridine-8-carboxylic acid]
form after slurry by XRPD [3]: complete conversion to Form XXII

O=C(O)c1ccc2c(c1)nc(Nc1cccc(Cl)c1)c1ccncc12 [Compound I, 5-(3-chlorophenylamino)benzo[c][2,6]naphthyridine-8-carboxylic acid]
water solubility [9]: very low

O=C(O)c1ccc2c(c1)nc(Nc1cccc(Cl)c1)c1ccncc12 [Form XXI-B, 5-(3-chlorophenylamino)benzo[c][2,6]naphthyridine-8-carboxylic acid]
form after slurry by XRPD [3]: complete conversion to Form XXI

O=C(O)c1ccc2c(c1)nc(Nc1cccc(Cl)c1)c1ccncc12 [Form VII, 5-(3-chlorophenylamino)benzo[c][2,6]naphthyridine-8-carboxylic acid]
stability by XRPD ([6]; ambient conditions and 40° C./75% relative humidity, seven days): stable

O=C(O)c1ccc2c(c1)nc(Nc1cccc(Cl)c1)c1ccncc12 [Form XXII, 5-(3-chlorophenylamino)benzo[c][2,6]naphthyridine-8-carboxylic acid]
DSC change after micronization [1]: no significant change | XRPD change after micronization [1]: no significant change in crystalline structure | change by XRPD and DSC [2]: no significant change | HPLC impurity after storage [2]: no additional impurity | relative stability of the two forms [3]: more stable | ease of dissolution [4]: particularly easily dissolved | d50, Average ([5]; micronized): 6.0 μm | d90, Average ([5]; micronized): 10.5 μm | d50, 3 times ([5]; micronized): 6.12 μm and 6.03 μm and 5.99 μm | d90, 3 times ([5]; micronized): 10.72 μm and 10.51 μm and 10.41 μm | d50, Average ([5]; pre-micronized): 10.0 μm | d90, Average ([5]; pre-micronized): 23.4 μm | d50, 3 times ([5]; pre-micronized): 9.97 μm and 9.98 μm and 10.06 μm | d90, 3 times ([5]; pre-micronized): 23.26 μm and 23.15 μm and 23.68 μm

O=C(O)c1ccc2c(c1)nc(Nc1cccc(Cl)c1)c1ccncc12 [Form II, 5-(3-chlorophenylamino)benzo[c][2,6]naphthyridine-8-carboxylic acid]
solubility relative to other polymorphs [4]: significantly more soluble than other polymorphs | form after drying ([6]; 80° C. for about 24 hours and prolonged drying at 60° C.): converted to amorphous material | GVS uptake of water ([8]; 20-70% RH): about 12% | GVS weight gain ([8]; RH range of about 10% to about 70%): about 8% | form conversion in the GVS cycle ([8]; about 10% to about 90% RH, repeated): No further form conversion was observed | XRPD analysis of the post-GVS experiment sample [8]: amorphous content | hydroscopicity by GVS [8]: moderate

O=C(O)c1ccc2c(c1)nc(Nc1cccc(Cl)c1)c1ccncc12 [Form III, 5-(3-chlorophenylamino)benzo[c][2,6]naphthyridine-8-carboxylic acid]
physical change in light study by XRPD [6]: no physical change | time in which material reverts to Form II [6]: ≤ 24 h | physical change on storage by XRPD [6]: less crystalline appearance | XRPD analysis of the post-GVS experiment sample [8]: amorphous content | GVS desorption: sample retains water until [8]: 5% | hydroscopicity by GVS [8]: hydroscopic | GVS water absorbed on sorption ([8]; sorption): 11%
